These results are taken from US7872005B2, “2-substituted heteroaryl compounds” (Synta Pharmaceuticals Corporation, priority 2004, dated 2011).

The test system of this assay is IL-12 production in human PBMC or THP-1 cells. The assay can be described thus: In vitro inhibition of IL-12 production in stimulated human PBMC or THP-1 cells (ELISA). Type of assay: cell-based. Particulars: representative in vitro IC50 data. An excerpt: The biological activities of a heterocyclic compound can be evaluated by a number of cell-based assays. One of such assays can be conducted using cells from human peripheral blood mononuclear cells (PBMC) or human monocytic cell line (THP-1). The cells are stimulated with a combination of human interferon-γ (IFNγ) and lipopolysaccharide or a combination of IFNγ and Staphylococcus aureus Cowan I in the presence of a test compound. The level of inhibition of IL-12 production can be measured by determining the amount of p70 by using a sandwich ELISA assay with anti-human IL-12 antibodies. IC50 of the test compound can then be determined. Specifically, PBMC or THP-1 cells are incubated with the test compound. Cell viability was assessed using the bioreduction of MTS [3-(4,5-dimethylthiazol-2-yl)-5-(3-carboxymethoxyphenyl)-2-(4-sulfophenyl)-2H-tetrazolium] (Promega, Madison, Wis.).
Reagents. Staphylococcus aureus Cowan I (SAC) was obtained from Calbiochem (La Jolla, Calif.), and lipopolysaccharide (LPS, Serratia marscencens) was obtained from Sigma (St. Louis, Mo.). Human and mouse recombinant IFNγ were purchased from Boehringer Mannheim (Mannheim, Germany) and Pharmingen (San Diego, Calif.), respectively.
Human In Vitro Assay. Human PBMC were isolated by centrifugation using Ficoll-Paque (Pharmacia Biotech, Uppsala, Sweden) and prepared in RPMI medium supplemented with 10% fetal calf serum (FCS), 100 U/mL penicillin, and 100 μg/mL streptomycin. PBMC were plated in wells of a 96-well plate at a concentration of 5×10^5 cells/well, and primed by adding IFNγ (30 U/mL) for 22 h and stimulated by adding LPS (1 μg/mL), or by adding IFNγ (100 U/mL) and then stimulated by adding SAC (0.01%). A test pyrimidine compound was dissolved in DMSO, and added to wells of the 96-well plate. The final DMSO concentration was adjusted to 0.25% in all cultures, including the compound-free control. Human THP-1 cells were plated in wells, primed by adding IFNγ (100 U/mL) for 22 h and stimulated by adding SAC (0.025%) in the presence of different concentrations of the pyrimidine compound. Cell-free supernatants were taken 18 h later for measurement of cytokines. Cell viability was assessed using the bioreduction of MTS. Cell survival was estimated by determining the ratio of the absorbance in compound-treated groups versus compound-free control.
The supernatant was assayed for the amount of IL-12p40, IL-12p70, or IL-10 by using a sandwich ELISA with anti-human antibodies, i.e., a Human IL-12 p40 ELISA kit from R&D Systems (Berkeley, Calif.), and a Human IL-12 p70 or IL-10 ELISA kit from Endogen (Cambridge, Mass.). Assays were based on the manufacturer's instructions.
The biological activities of pyrimidine compounds were tested on human PBMC or THP-1 cells. Unexpectedly, some of the test compounds have IC50 values as low as <1 nM.
A general note: An ELISA detects its analyte on a solid surface through an enzyme-linked reagent.

Where only a bound is given, the exact number is not on record here.

One may read the IC50 as the concentration at which inhibition is half-maximal. Turning to `CCNC(=O)OCCc1nc(N/N=C/c2cccc(C)c2)cc(N2CCOCC2)n1` [Compound 17, Ethyl-carbamic acid 2-{4-[N′-(3-methyl-benzylidene)-hydrazino]-6-morpholin-4-yl-pyrimidin-2-yl}-ethyl ester], the IC50 was under 25 nM.
Regarding `Cc1ccc(NC(=O)OCCc2nc(N/N=C/c3cccc(C)c3)cc(N3CCOCC3)n2)cc1` [Compound 13, p-Tolyl-carbamic acid 2-{4-[N′-(3-methyl-benzylidene)-hydrazino]-6-morpholin-4-yl-pyrimidin-2-yl}-ethyl ester], the IC50 was under 25 nM.
The value for `Cc1cccc(/C=N/Nc2cc(N3CCOCC3)nc(CCCOC(=O)Nc3cccc(C(F)(F)F)c3)n2)c1` [Compound 2, (3-Trifluoromethyl-phenyl)-carbamic acid 3-{4-[N′-(3-methyl-benzylidene)-hydrazino]-6-morpholin-4-yl-pyrimidin-2-yl}-propyl ester] was under 25 nM.
Consider `Cc1cccc(/C=N/Nc2cc(N3CCOCC3)nc(CCCOC(=O)Nc3ccc(Oc4ccccc4)cc3)n2)c1` [Compound 11, (4-Phenoxy-phenyl)-carbamic acid 3-{4-[N′-(3-methyl-benzylidene)-hydrazino]-6-morpholin-4-yl-pyrimidin-2-yl}-propyl ester], for which the half-maximal inhibitory concentration (IC50) lay within 25 to 50 nM.
The value for `Cc1cccc(/C=N/Nc2cc(N3CCOCC3)nc(CCCOC(=O)Nc3cccc4ccccc34)n2)c1` [Compound 10, Naphthalen-1-yl-carbamic acid 3-{4-[N′-(3-methyl-benzylidene)-hydrazino]-6-morpholin-4-yl-pyrimidin-2-yl}-propyl ester] was over 50 nM; that for `Cc1cccc(/C=N/Nc2cc(N3CCOCC3)nc(CC(C)(C)OC(=O)Nc3cccc(C(F)(F)F)c3)n2)c1` [Compound 29, (3-Trifluoromethyl-phenyl)-carbamic acid 1,1-dimethyl-2-{4-[N′-(3-methyl-benzylidene)-hydrazino]-6-morpholin-4-yl-pyrimidin-2-yl}-ethyl ester] was over 50 nM.
On to `Cc1cccc(/C=N/N(C)c2cc(N3CCOCC3)nc(CCCOC(=O)Nc3cccc(C(F)(F)F)c3)n2)c1` [Compound 4, (3-Trifluoromethyl-phenyl)-carbamic acid 3-{4-[N-methyl-N′-(3-methyl-benzylidene)-hydrazino]-6-morpholin-4-yl-pyrimidin-2-yl}-propyl ester], for which the IC50 is over 50 nM.
As for `Cc1cccc(/C=N/Nc2cc(N3CCOCC3)nc(CCC(C)(C)OC(=O)Nc3cccc(C(F)(F)F)c3)n2)c1` [Compound 27, (3-Trifluoromethyl-phenyl)-carbamic acid 1,1-dimethyl-3-{4-[N′-(3-methyl-benzylidene)-hydrazino]-6-morpholin-4-yl-pyrimidin-2-yl}-propyl ester], the IC50 was over 50 nM.
The value for `Cc1ccc(NC(=O)OCCCc2nc(N3CCOCC3)cc(N(C)/N=C/c3cccc(C)c3)n2)cc1` [Compound 14, p-Tolyl-carbamic acid 3-{4-[N-methyl-N′-(3-methyl-benzylidene)-hydrazino]-6-morpholin-4-yl-pyrimidin-2-yl}-propyl ester] was under 25 nM; that for `Cc1ccc(NC(=O)OCCCc2nc(N/N=C/c3cccc(C)c3)cc(N3CCOCC3)n2)cc1` [Compound 3, p-Tolyl-carbamic acid 3-{4-[N′-(3-methyl-benzylidene)-hydrazino]-6-morpholin-4-yl-pyrimidin-2-yl}-propyl ester] was under 25 nM.
As to `Cc1cccc(/C=N/Nc2cc(N3CCOCC3)nc(CCCOC(=O)Nc3ccccc3F)n2)c1` [Compound 6, (2-Fluoro-phenyl)-carbamic acid 3-{4-[N′-(3-methyl-benzylidene)-hydrazino]-6-morpholin-4-yl-pyrimidin-2-yl}-propyl ester], the IC50 was under 25 nM.
Take `Cc1cccc(/C=N/Nc2cc(N3CCOCC3)nc(OCC(C)(C)OC(=O)Nc3cccc(C(F)(F)F)c3)n2)c1` [Compound 28, (3-Trifluoromethyl-phenyl)-carbamic acid 1,1-dimethyl-2-{4-[N′-(3-methyl-benzylidene)-hydrazino]-6-morpholin-4-yl-pyrimidin-2-yloxy}-ethyl ester]: the IC50 is under 25 nM.
For `Cc1cccc(/C=N/Nc2cc(N3CCOCC3)nc(CCCOC(=O)Nc3ccc([N+](=O)[O-])cc3)n2)c1` [Compound 7, (4-Nitro-phenyl)-carbamic acid 3-{4-[N′-(3-methyl-benzylidene)-hydrazino]-6-morpholin-4-yl-pyrimidin-2-yl}-propyl ester], the IC50 was under 25 nM.
Turning to `COc1cccc(NC(=O)OCCCc2nc(N/N=C/c3cccc(C)c3)cc(N3CCOCC3)n2)c1` [Compound 1, (3-Methoxy-phenyl)-carbamic acid 3-{4-[N′-(3-methyl-benzylidene)-hydrazino]-6-morpholin-4-yl-pyrimidin-2-yl}-propyl ester], the half-maximal inhibitory concentration (IC50) was in the range of 25 to 50 nM.
Turning to `Cc1cccc(/C=N/Nc2cc(N3CCOCC3)nc(CCSc3nnc(-c4ccncc4)[nH]3)n2)c1` [Compound 25, N-(3-Methyl-benzylidene)-N′-{6-morpholin-4-yl-2-[2-(5-pyridin-4-yl-4H-[1,2,4]triazol-3-ylsulfanyl)-ethyl]-pyrimidin-4-yl}-hydrazine], the IC50 was under 25 nM.
On to `Cc1cccc(/C=N/Nc2cc(N3CCOCC3)nc(CCOC(=O)Nc3ccccc3)n2)c1` [Compound 24, Phenyl-carbamic acid 2-{4-[N′-(3-methyl-benzylidene)-hydrazino]-6-morpholin-4-yl-pyrimidin-2-yl}-ethyl ester], for which the IC50 was under 25 nM.
Regarding `CCNC(=O)OCCCc1nc(N/N=C/c2cccc(C)c2)cc(N2CCOCC2)n1` [Compound 8, Ethyl-carbamic acid 3-{4-[N′-(3-methyl-benzylidene)-hydrazino]-6-morpholin-4-yl-pyrimidin-2-yl}-propyl ester], the IC50 is under 25 nM.
Consider `Cc1cccc(/C=N/Nc2cc(N3CCOCC3)nc(CCSc3nnnn3CCN(C)C)n2)c1` [Compound 18, Dimethyl-{2-[5-(2-{4-[N′-(3-methyl-benzylidene)-hydrazino]-6-morpholin-4-yl-pyrimidin-2-yl}-ethylsulfanyl)-tetrazol-1-yl]-ethyl}-amine], for which the half-maximal inhibitory concentration (IC50) is under 25 nM.
With `Cc1cccc(/C=N/Nc2cc(N3CCOCC3)nc(CCCOC(=S)Nc3cccnc3)n2)c1` [Compound 9, Pyridin-3-yl-thiocarbamic acid O-(3-{4-[N′-(3-methyl-benzylidene)-hydrazino]-6-morpholin-4-yl-pyrimidin-2-yl}-propyl) ester], the IC50 was under 25 nM.
The value for `Cc1cccc(/C=N/Nc2cc(N3CCOCC3)nc(CCOC(=O)Nc3ccc(C#N)cc3)n2)c1` [Compound 22, (4-Cyano-phenyl)-carbamic acid 2-{4-[N′-(3-methyl-benzylidene)-hydrazino]-6-morpholin-4-yl-pyrimidin-2-yl}-ethyl ester] was under 25 nM.
As for `Cc1cccc(/C=N/Nc2cc(N3CCOCC3)nc(CCOC(=O)Nc3ccc(Cl)cc3)n2)c1` [Compound 21, (4-Chloro-phenyl)-carbamic acid 2-{4-[N′-(3-methyl-benzylidene)-hydrazino]-6-morpholin-4-yl-pyrimidin-2-yl}-ethyl ester], the IC50 lay in the range of 25 to 50 nM.
As for `Cc1cccc(/C=N/Nc2cc(N3CCOCC3)nc(CC(C)(C)OC(=O)Nc3ccc(C(F)(F)F)cc3)n2)c1` [Compound 30, (4-Trifluoromethyl-phenyl)-carbamic acid 1,1-dimethyl-2-{4-[N′-(3-methyl-benzylidene)-hydrazino]-6-morpholin-4-yl-pyrimidin-2-yl}-ethyl ester], the IC50 was under 25 nM.
Turning to `Cc1cccc(/C=N/Nc2cc(N3CCOCC3)nc(CCC(C)(C)OC(=O)Nc3cccc(C)c3)n2)c1` [Compound 26, m-Tolyl-carbamic acid 1,1-dimethyl-3-{4-[N′-(3-methyl-benzylidene)-hydrazino]-6-morpholin-4-yl-pyrimidin-2-yl}-propyl ester], the IC50 was 25 to 50 nM.
As for `Cc1ccc(NC(=O)OCCOc2nc(N/N=C/c3cccc(C)c3)cc(N3CCOCC3)n2)cc1` [Compound 19, p-Tolyl-carbamic acid 2-{4-[N′-(3-methyl-benzylidene)-hydrazino]-6-morpholin-4-yl-pyrimidin-2-yloxy}-ethyl ester], the IC50 is under 25 nM.
